The target of this experiment is T1, mouse ENT-1 transporter (Mus musculus, UniProt Q9JIM1).
T1 construct: expressed in transfected cells
T1 sequence (Q9JIM1 1-460): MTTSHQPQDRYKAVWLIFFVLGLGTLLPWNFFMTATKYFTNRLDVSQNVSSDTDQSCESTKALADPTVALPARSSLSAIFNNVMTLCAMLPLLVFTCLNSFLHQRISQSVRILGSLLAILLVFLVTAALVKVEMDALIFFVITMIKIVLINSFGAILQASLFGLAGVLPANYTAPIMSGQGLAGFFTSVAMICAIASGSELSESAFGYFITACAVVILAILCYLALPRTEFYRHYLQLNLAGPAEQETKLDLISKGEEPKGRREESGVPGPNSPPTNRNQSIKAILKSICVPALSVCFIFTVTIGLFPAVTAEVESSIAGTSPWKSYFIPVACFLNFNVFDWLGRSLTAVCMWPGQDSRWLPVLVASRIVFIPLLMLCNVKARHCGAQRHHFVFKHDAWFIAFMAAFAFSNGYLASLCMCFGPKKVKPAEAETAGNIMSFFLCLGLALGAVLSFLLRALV
Kind of experiment: Adenosine transport activity (ENT1, [3H]-adenosine uptake inhibition). In kind it is cell-based. Particulars: stable cells expressing mouse ENT-1; [2,8-3H]-adenosine 6 nM, 20 min. On the procedure:
To measure adenosine transport activity of ENT-1 mammalian cells, stable cells expressing the mouse ENT-1 transporter were plated on day 1 in 96-well culture plates at the density of 60,000 cells/well, in complete DMEM/F12 medium supplemented with glutamax, 10% FBS and 10 μg/ml puromycin. On day 2, the medium was aspirated and the cells were washed twice with uptake buffer (10 mM Hepes-Tris, pH 7.4 containing 150 mM NaCl, 1 mM CaCl2, 2.5 mM KCl, 2.5 mM MgSO4, 10 mM D-glucose) (UB). For inhibition experiments, cells were then incubated at RT with various concentrations of compounds with 1% DMSO final. Non-specific uptake was defined in the presence of 10 μM S-(4-Nitrobenzyl)-6-thioinosine (NBTI, Sigma Cat #N2255). A solution containing [2,8-^3H]-adenosine 6 nM (40 Ci/mmol, American Radiolabeled chemicals Inc, Cat #ART 0287A) was then immediately added to the wells. The plates were then incubated for 20 min with gentle shaking and the reaction was stopped by aspiration of the mixture and washing (three times) with ice-cold UB. The cells were lysed by the addition of scintillation liquid, shaken 3 hours and the radioactivity in the cells was estimated using a microplates scintillation counter (TopCount NXT, Packard).

On to `Cc1ncc(-c2ccc3c(c2)N(c2cncc(N4C(=O)O[C@H]5CC[C@H]54)n2)C(=O)C3(C)C)cn1` (racemic) [Example 55, rac-(1S,5R)-4-(6-(3,3-Dimethyl-6-(2-methylpyrimidin-5-yl)-2-oxoindolin-1-yl)pyrazin-2-yl)-2-oxa-4-azabicyclo[3.2.0]heptan-3-one], for which it took 24.8 nM to reach half-maximal inhibition (IC50).
In the case of `Cc1ncc(-c2ccc3c(c2)N(c2cncc(N)n2)C(=O)C3(C)C)cn1` [Example 2, 1-(6-Aminopyrazin-2-yl)-3,3-dimethyl-6-(2-methylpyrimidin-5-yl)indolin-2-one], the 50% inhibitory concentration (IC50) is 163 nM.
For `Cc1ncc(-c2ccc3c(c2)N(c2cncc(N4CCCC4)n2)C(=O)C3(C)C)cn1` [Example 4, 3,3-Dimethyl-6-(2-methylpyrimidin-5-yl)-1-(6-(pyrrolidin-1-yl)pyrazin-2-yl)indolin-2-one] the value was 253 nM; for `CC(=O)Nc1cncc(N2C(=O)C(C)(C)c3ccc(-c4cnc(C)nc4)cc32)n1` [Example 5, N-(6-(3,3-Dimethyl-6-(2-methylpyrimidin-5-yl)-2-oxoindolin-1-yl)pyrazin-2-yl)acetamide], 48 nM; for `Cc1ncc(-c2ccc3c(c2)N(c2cncc(N4CCC(F)(F)CC4)n2)C(=O)C3(C)C)cn1` [Example 6, 1-(6-(4,4-Difluoropiperidin-1-yl)pyrazin-2-yl)-3,3-dimethyl-6-(2-methylpyrimidin-5-yl)indolin-2-one], 32.4 nM.
The same measure for `Cc1ncc(-c2ccc3c(c2)N(c2cncc(NC4CC4)n2)C(=O)C3(C)C)cn1` [Example 7, 1-(6-(Cyclopropylamino)pyrazin-2-yl)-3,3-dimethyl-6-(2-methylpyrimidin-5-yl)indolin-2-one]: 39.6 nM.
On to `COCCNc1cncc(N2C(=O)C(C)(C)c3ccc(-c4cnc(C)nc4)cc32)n1` [Example 8, 1-[6-(2-Methoxyethylamino)pyrazin-2-yl]-3,3-dimethyl-6-(2-methylpyrimidin-5-yl)indol-2-one], for which the IC50 was 87.6 nM.
For `Cc1ncc(-c2ccc3c(c2)N(c2cncc(N4CCC(O)CC4)n2)C(=O)C3(C)C)cn1` [Example 9, 1-(6-(4-Hydroxypiperidin-1-yl)pyrazin-2-yl)-3,3-dimethyl-6-(2-methylpyrimidin-5-yl)indolin-2-one] the value was 21.8 nM; for `Cc1ncc(-c2ccc3c(c2)N(c2cncc(N4CCS(=O)(=O)CC4)n2)C(=O)C3(C)C)cn1` [Example 10, 1-(6-(1,1-Dioxidothiomorpholino)pyrazin-2-yl)-3,3-dimethyl-6-(2-methylpyrimidin-5-yl)indolin-2-one], 29.6 nM.
For `Cc1ncc(-c2ccc3c(c2)N(c2cncc(N4CCC(C)(O)CC4)n2)C(=O)C3(C)C)cn1` [Example 11, 1-(6-(4-Hydroxy-4-methylpiperidin-1-yl)pyrazin-2-yl)-3,3-dimethyl-6-(2-methylpyrimidin-5-yl)indolin-2-one] the value was 33.8 nM; for `COCCN(C)c1cncc(N2C(=O)C(C)(C)c3ccc(-c4cnc(C)nc4)cc32)n1` [Example 12, 1-(6-((2-Methoxyethyl)(methyl)amino)pyrazin-2-yl)-3,3-dimethyl-6-(2-methylpyrimidin-5-yl)indolin-2-one], 54.5 nM.
The same measure for `Cc1ncc(-c2ccc3c(c2)N(c2cncc(N4[C@@H]5COC[C@H]4C5)n2)C(=O)C3(C)C)cn1` [Example 13, 1-(6-((1R,5S)-3-Oxa-6-azabicyclo[3.1.1]heptan-6-yl)pyrazin-2-yl)-3,3-dimethyl-6-(2-methylpyrimidin-5-yl)indolin-2-one]: 137 nM; for `Cc1ncc(-c2ccc3c(c2)N(c2cncc(N4CCC45COC5)n2)C(=O)C3(C)C)cn1` [Example 14, 1-(6-(6-Oxa-1-azaspiro[3.3]heptan-1-yl)pyrazin-2-yl)-3,3-dimethyl-6-(2-methylpyrimidin-5-yl)indolin-2-one]: 110 nM.
Consider `Cc1ncc(-c2ccc3c(c2)N(c2cncc(N4C[C@H]5C[C@@H](C4)O5)n2)C(=O)C3(C)C)cn1` [Example 16, 1-(6-((1R,5S)-6-Oxa-3-azabicyclo[3.1.1]heptan-3-yl)pyrazin-2-yl)-3,3-dimethyl-6-(2-methylpyrimidin-5-yl)indolin-2-one], for which the IC50 came to 88.7 nM.
In the case of `Cc1ncc(-c2ccc3c(c2)N(c2cncc(NC4COC4)n2)C(=O)C3(C)C)cn1` [Example 17, 3,3-Dimethyl-6-(2-methylpyrimidin-5-yl)-1-(6-(oxetan-3-ylamino)pyrazin-2-yl)indolin-2-one], it took 244 nM to reach half-maximal inhibition (IC50).
For `COCCNc1nc(N2C(=O)C(C)(C)c3ccc(-c4cnc(C)nc4)cc32)cnc1C` [Example 19, 1-(6-((2-Methoxyethyl)amino)-5-methylpyrazin-2-yl)-3,3-dimethyl-6-(2-methylpyrimidin-5-yl)indolin-2-one] the value was 110 nM; for `Cc1ncc(-c2ccc3c(c2)N(c2cncc(N4C(=O)OC[C@H]4C(C)C)n2)C(=O)C3(C)C)cn1` [Example 21, (R)-3-(6-(3,3-Dimethyl-6-(2-methylpyrimidin-5-yl)-2-oxoindolin-1-yl)pyrazin-2-yl)-4-isopropyloxazolidin-2-one], 238 nM.
Consider `Cc1ncc(-c2ccc3c(c2)N(c2cncc(N4C(=O)OC[C@@H]4C(C)C)n2)C(=O)C3(C)C)cn1` [Example 22, (S)-3-(6-(3,3-Dimethyl-6-(2-methylpyrimidin-5-yl)-2-oxoindolin-1-yl)pyrazin-2-yl)-4-isopropyloxazolidin-2-one], for which the IC50 is 387 nM.
For `Cc1ncc(-c2ccc3c(c2)N(c2ccnc(N4CCOCC4)n2)C(=O)C3(C)C)cn1` [Example 23, 3,3-Dimethyl-6-(2-methylpyrimidin-5-yl)-1-(2-morpholinopyrimidin-4-yl)indolin-2-one] the value was 52.2 nM.
`Cc1ncc(-c2ccc3c(c2)N(c2nccc(N4CCOCC4)n2)C(=O)C3(C)C)cn1` [Example 24, 3,3-Dimethyl-6-(2-methylpyrimidin-5-yl)-1-(4-morpholinopyrimidin-2-yl)indolin-2-one] yielded a 50% inhibitory concentration (IC50) of 321 nM.
As to `Cc1ncc(-c2ccc3c(c2)N(c2cncc(N)c2)C(=O)C3(C)C)cn1` [Example 25, 1-(5-Aminopyridin-3-yl)-3,3-dimethyl-6-(2-methylpyrimidin-5-yl)indolin-2-one], the IC50 was 466 nM.
For the compound `Cc1ncc(-c2ccc3c(c2)N(c2cncc(N4CCOCC4)c2)C(=O)C3(C)C)cn1` [Example 26, 3,3-Dimethyl-6-(2-methylpyrimidin-5-yl)-1-(5-morpholinopyridin-3-yl)indolin-2-one], the IC50 was 17.6 nM.
The same measure for `Cc1ncc(-c2ccc3c(c2)N(c2cccc(N4CCOCC4)n2)C(=O)C3(C)C)cn1` [Example 27, 3,3-Dimethyl-6-(2-methylpyrimidin-5-yl)-1-(6-morpholinopyridin-2-yl)indolin-2-one]: 57.5 nM; for `Cc1ncc(-c2ccc3c(c2)N(c2cccc(N4CCOC4=O)n2)C(=O)C3(C)C)cn1` [Example 28, 3-(6-(3,3-Dimethyl-6-(2-methylpyrimidin-5-yl)-2-oxoindolin-1-yl)pyridin-2-yl)oxazolidin-2-one]: 5 nM; for `Cc1ncc(-c2ccc3c(c2)N(c2ccc(C)c(N)n2)C(=O)C3(C)C)cn1` [Example 29, 1-(6-Amino-5-methylpyridin-2-yl)-3,3-dimethyl-6-(2-methylpyrimidin-5-yl)indolin-2-one]: 126 nM.
For `CC(=O)Nc1nc(N2C(=O)C(C)(C)c3ccc(-c4cnc(C)nc4)cc32)ccc1C` [Example 30, N-(6-(3,3-Dimethyl-6-(2-methylpyrimidin-5-yl)-2-oxoindolin-1-yl)-3-methylpyridin-2-yl)acetamide], half-maximal inhibition (IC50) was put at 346 nM.
In turn, `Cc1ncc(-c2ccc3c(c2)N(c2ccc(C)c(N4CCOCC4)n2)C(=O)C3(C)C)cn1` [Example 31, 3,3-Dimethyl-1-(5-methyl-6-morpholinopyridin-2-yl)-6-(2-methylpyrimidin-5-yl)indolin-2-one] gave a half-maximal inhibitory concentration (IC50) of 40.1 nM.
Regarding `Cc1ncc(-c2ccc3c(c2)N(c2ccc(C)c(N4CCOC4=O)n2)C(=O)C3(C)C)cn1` [Example 32, 3-(6-(3,3-Dimethyl-6-(2-methylpyrimidin-5-yl)-2-oxoindolin-1-yl)-3-methylpyridin-2-yl)oxazolidin-2-one], the IC50 amounted to 32.4 nM.
For `Cc1ncc(-c2ccc3c(c2)N(c2cccc4[nH]ccc24)C(=O)C3(C)C)cn1` [Example 33, 1-(1H-Indol-4-yl)-3,3-dimethyl-6-(2-methylpyrimidin-5-yl)indolin-2-one] the value was 742 nM; for `Cc1ncc(-c2ccc3c(c2)N(c2cncc4[nH]ccc24)C(=O)C3(C)C)cn1` [Example 34, 3,3-Dimethyl-6-(2-methylpyrimidin-5-yl)-1-(1H-pyrrolo[2,3-c]pyridin-4-yl)indolin-2-one], 838 nM.

The values above are taken from patent US10519140B2, “Indolin-2-one derivatives” (Hoffmann-La Roche Inc., priority 2015, dated 2019).
